Experimental findings from a melting point compilation (Tetko et al.; mined from patent text by program, amines drawn as free bases though some values may be those of a salt) are described below.

The term melting point denotes the temperature of the solid-liquid transition. `O=C(c1ccccc1C(c1ccc(O)cc1)c1ccc(O)cc1)N1CCCCC1` yielded a melting point of 242 to 244 °C.

In the case of `CC(C)Cc1nnc2n1-c1ccc(Br)cc1C(c1ccccc1)=NC2`, the melting point was 93 to 95 °C.

Turning to `CCOC(=O)C(=NOCc1ccc(OCc2nc(-c3ccccc3)oc2C)cc1)c1ccc(OC)cc1`, the melting point was 102 to 103 °C.

`COC(=O)COc1ccc2cc(-c3cnc(-c4cn(Cc5ccccc5)c5ccccc45)o3)ccc2c1` yielded a melting point of 204 to 207 °C.

`COc1ccc(C2CCC(=O)CC2NC(=O)c2ccc(OCC3CC3)c(OCC3CC3)c2)cc1OC` (centres undefined) returned a melting point of 150 to 152 °C.

With `O=C(NCCC1OCCO1)c1ccc[nH]1`, the melting point fell in the range of 133 to 135 °C.

`O=C(Nc1cc(F)cc2c(=O)cc(C(=O)O)oc12)c1ccc2c(c1)CC(CCCc1ccccc1)O2` (centres undefined) yielded a melting point of 183 to 185 °C.

In turn, `NC(=O)c1cc2c(Sc3ccc(Cl)cc3)cncc2s1` returned a melting point of 239 to 241 °C.

On to `CN(Cc1cc2c(=O)c(C(=O)NCc3ccc(Cl)cc3)cn(C)c2s1)CC(O)c1ccccc1` (centres undefined), for which the melting point fell in the range of 162 to 164 °C.

Turning to `O=C1NC(=O)c2cc(C(c3ccc4c(c3)C(=O)NC4=O)(C(F)(F)F)C(F)(F)F)ccc21`, the melting point came to 322 °C.

`CN1C(=O)c2ccc(CBr)cc2S1(=O)=O` displayed a melting point of 153 to 154 °C.

`CC1CC(=O)c2cc([N+](=O)[O-])cnc2C1` (centres undefined) had a melting point of 64 to 67 °C.

For `O=C1CN(C(=O)c2ccccc2Cl)c2ccccc2N1`, the melting point lay within 222 to 224 °C.

Turning to `CNS(=O)(=O)c1cc(C(=O)CCC(=O)OC)ccc1Cl`, the melting point lay in the range of 112 to 114 °C.

As to `O=C(O)COc1cccc(-c2n[nH]c3c2Cc2ccccc2-3)c1`, the melting point lay within 246 to 248 °C.

With `CCC1(C)OC(c2ccc(S(C)(=O)=O)cc2)=C(c2ccccc2)C1=O` (centres undefined), the melting point lay within 115 to 117 °C.

For the molecule `CCOC(=O)C(NC(=O)CNC=O)C(=O)OCC`, the melting point lay in the range of 95 to 96 °C.

With `CCc1ccc2oc(C(=O)Nc3ccc(-c4ccc(S(=O)(=O)NC(C(=O)OC)C(C)C)cc4)cc3)c(C)c2c1OCc1ccccc1` (centres undefined), the melting point is 191 to 193 °C.

Regarding `Cc1ccc(N)cc1Nc1ncc(-c2cccnc2)o1`, the melting point came to 166 °C.

Molecule `Cc1nc2ccccc2n(-c2ccc(CC(=O)O)cc2)c1=O` yielded a melting point of 179 to 182 °C.

Turning to `CC(O)(Cc1ccc(C#N)cc1)Cc1ccc(C#N)cc1`, the melting point fell in the range of 147 to 148 °C.

The molecule `CC(C)OCCCNC(=O)C(C)(C(C)C)C(C)C` displayed a melting point of 32 °C.

Turning to `CCOC(=O)c1cccc2nc(S)n(Cc3ccc(-c4ccccc4C#N)cc3)c12`, the melting point fell in the range of 225 to 227 °C.

`COc1ccc(CC[C@H]2CNCCN2)cc1` showed a melting point of 125 to 130 °C.

As for `COCc1cc(C2=NOC(c3cc(Cl)cc(Cl)c3)(C(F)(F)F)C2)ccc1C(=O)NC(=N)OC` (centres undefined), the melting point was in the range of 132 to 134 °C.

`O=C(Nc1ccccc1)c1cc([N+](=O)[O-])ccc1Cl` returned a melting point of 155 to 156 °C.

Molecule `Cn1c(=O)nc(-c2ccccc2)c2cc(Cl)ccc21` gave a melting point of 224 °C.

`Cc1cc(C(C)C)c(C=O)[nH]1` registered a melting point of 90 to 93 °C.

In turn, `CC(=O)NN=Cc1ccc(N2CCN(C)CC2)nc1F` gave a melting point of 210 to 212 °C.

`Cc1nc(N)ccc1Cl` had a melting point of 74 to 75 °C.

For the molecule `O=C(OI(OC(=O)C(F)(F)F)C(F)(F)C(F)(F)C(F)(F)C(F)(F)C(F)(F)C(F)(F)C(F)(F)C(F)(F)F)C(F)(F)F`, the melting point was 70 to 74 °C.

Take `NC(=O)C(F)(F)C(O)(Cn1cncn1)c1ccccc1` (centres undefined): the melting point was 160 to 161 °C.

`CCCCCN(O)C(=O)Nc1ccc(Cl)c(Cl)c1`: the melting point stood at 88 °C.

The molecule `C=C(C)C(=O)OCCN(C(=O)c1ccc(C(=O)O)cc1C(=O)O)C(C)(C)C` returned a melting point of 74 °C.

As for `CC1CCC(=O)CC1S(=O)(=O)c1ccccc1` (centres undefined), the melting point lay within 71 to 74 °C.

Take `c1cncc(-c2cnc3ccccc3c2)c1`: the melting point fell in the range of 117 to 119 °C.

In turn, `CC(C)(C)OC(=O)N1C[C@H](Oc2nccc(NC(=O)c3ccccc3)n2)C[C@@H]1C(=O)OC(c1ccccc1)c1ccccc1` had a melting point of 145 to 147 °C.

Regarding `CCc1cc2c(cc1CCSCC(N)=O)OCO2`, the melting point lay within 98 to 99 °C.

In the case of `COc1ccc(C(=Cc2ccncc2)c2ccncc2)cc1OC1CCCC1`, the melting point lay in the range of 136 to 138 °C.

On to `S=C1CN=C(c2ccc(Cl)cc2)c2cc(I)ccc2N1`, for which the melting point lay within 260 to 262 °C.

The molecule `COC(=O)C=CC=CCS(=O)c1ccccc1` (centres undefined) showed a melting point of 82 to 84 °C.

`CC(C)(C)OC(=O)N1CCC[C@@H](Nc2nccc(-c3c(-c4cccc(C#N)c4)nc4sccn34)n2)C1` registered a melting point of 108 to 110 °C.

The molecule `CC(NC(=O)C(=O)c1c[nH]c2ccc(Br)cc12)c1c[nH]c2ccc(Br)cc12` (centres undefined) had a melting point of 141 °C.

With `O=C(O)c1cnc2c(F)c(F)ccc2c1`, the melting point amounted to 275 °C.

The molecule `O=C(O)c1ccc(C(F)F)o1` came in with a melting point of 112 to 113 °C.

With `Nc1nc2nc(N3CCNCC3)nc(N)c2nc1-c1ccccc1`, the melting point fell in the range of 233 to 236 °C.

The molecule `CNc1cccc(C(C)=O)c1OCCCN1CCC(c2noc3cc(F)ccc23)CC1` had a melting point of 151 to 153 °C.

The molecule `CCOC(=O)[C@@H](CC(=O)c1ccc2ccccc2c1)NC(C)=O` gave a melting point of 94 to 95 °C.

In the case of `CN(Cc1cccc(Cl)c1)c1ccc(C(N)=O)nc1`, the melting point fell in the range of 178 to 183 °C.

Turning to `Cc1cccc2c(Nc3cc(CO)cc(NC(=O)Oc4ccc(N(CCCl)CCCl)cc4)c3)c3ccccc3nc12`, the melting point was in the range of 229 to 231 °C.

Regarding `O=C1CCC(c2ccccc2)(c2ccccc2)[C@@H]2CN(C(=O)Cc3c(F)cccc3F)C[C@H]12` (racemic), the melting point was 218 °C.

Turning to `CC(=O)SCC(Cc1ccccc1)C(=O)NC1(C(=O)OCc2ccccc2)CCCCC1` (centres undefined), the melting point is 166 to 168 °C.

Regarding `COC(C(N)=S)c1ccccn1` (centres undefined), the melting point lay within 157 to 159 °C.

In turn, `CN(C)C(=O)Sc1nc(-c2ccccc2)cn1-c1ccc([N+](=O)[O-])cn1` showed a melting point of 200 to 201 °C.

Consider `N#Cc1ccc(C2NCCc3ccccc32)cc1` (racemic), for which the melting point lay in the range of 114 to 115 °C.

As for `Fc1ccc(-c2nn3c(c2-c2ccncc2)NCC3)cc1`, the melting point fell in the range of 213 to 214 °C.

`O=C(CCl)Nc1ccccc1O` gave a melting point of 133 to 134 °C.

`COc1nscc1[N+](=O)[O-]`: the melting point was 118 to 122 °C.

`c1cc(-n2ccnc2)cc(-n2cnc3cc(-c4ccoc4)cnc32)c1` registered a melting point of 202 to 204 °C.

In turn, `Clc1ccc2c(c1)C(c1ccccc1)=NCc1nccn1-2` had a melting point of 146 to 148 °C.

On to `CC(C)(CO)NS(=O)(=O)c1ccc(Cl)c(NC(=O)c2cnn3c(C(F)F)cc(-c4ccc(C(F)(F)F)cc4)nc23)c1`, for which the melting point turned out to be 234 °C.

Molecule `C[C@@H]1N=C(c2ccccc2Cl)c2cc([N+](=O)[O-])ccc2NC1=O` registered a melting point of 200 to 202 °C.

Molecule `Cc1cc(NC(=O)C2=C(O)c3ccc4ccccc4c3S(=O)(=O)N2C)no1` displayed a melting point of 253 °C.

`COC1(c2csc(Sc3ccc4c(c3)CCC(=O)N4C)c2)CCOCC1` yielded a melting point of 106 to 108 °C.
